Legend:
HEK293 cells = assay: Freeze-thaw (-80° C.) cryoprotection of HEK293 cells, post-thaw attachment/viability; assay type: cell-based
Protocol: For the studies detailed below, the following procedures were used for preparation of cell cultures prior to cryopreservation: Both HEK-293 and HCT-115 cells were cultured in DMEM medium supplemented with 10% calf serum or 10% fetal calf serum. Two or three days prior to initiating a cryopreservation study, cells were seeded onto 100 mm tissue culture treated dishes in the above described culture medium and placed into a humidified, 5% CO2 incubator and allowed to propagate for 2 or 3 days. Preparation of growing cultures for cryostorage was performed as follows: Medium from 100 mm dishes containing growing cultures prepared as described above was aspirated and replaced with saline containing 0.5 mM EDTA and allowed to incubate for 2-3 minutes. This material was also aspirated and replaced with saline containing 0.25% trypsin and 0.25 mM EDTA. After incubating this second mixture for an additional 3-5 minutes and observing partial detachment of cells from dishes, cells were removed by using inertial force against the dish or by using a stream of saline or base culture medium to dislodge and collect cells from the dish. Cells harvested in this manner were separated by centrifugation (100 g×3 min), resuspended in the desired cryostorage solution, dispensed into polypropylene vials, positioned in microtube racks that were placed into a −80° C. freezer. Cells were kept frozen for 24-168 hours, at which time cryovials were removed to wet ice and cells thawed and plated into appropriate tissue culture vessels, typically 6 or 12 well plates. Cells were visualized with the aid of a Nikon TE300 microscope with an attached camera to allow documentation.
As described above, we wished to test the ability of amino acid species to serve as primary cryoprotectants per the definition provided, i.e. at concentrations at which they provided osmotic pressure sufficient to induce cell dehydration. For this purpose we prepared solutions of several amino acids, including alanine, glycine, proline, glutamate, histidine, aspartate, leucine, lysine, phenylalanine, threonine, arginine, and serine. These were standardized to 1M and adjusted to pH 7.1-pH 7.3, where possible or to maximal concentrations when 1M was above the solubility such as histidine and leucine. These solutions were used by dilution in water to test for their ability to serve as a cryoprotectant or diluted to the desired target concentration in a variety of base media including saline, and the two growth mediums described above (DMEM and OptiMeM) in the studies with three different mammalian cell lines described below described below.
FIG. 1. […] To test this capacity against a well-established cryoprotectant from those described above, HEK293 cultures were prepared as above in one of three base cryostorage mediums as noted below each pair of photographs depicted in panel A: (a) OptiMEM culture medium (ThermoFisher), a serum free growth medium, (b) DMEM culture medium containing 10% serum, or (c) 0.3M glutamate pH 7.2. One sample was prepared in each storage medium as described (labels on the bottom of each vertical pair of photographs), and an additional sample for each was prepared with 7.5% DMSO. 23 hours after plating thawed cells, cultures were visualized with 4× (upper) and 20× objectives (lower). […] The images were also analyzed using NIH Image to count cell numbers, depicted in panel B.
FIG. 2. […] HEK293 cells were prepared as described above in OptiMEM medium and apportioned into 4 samples containing 0 mM, 100 mM, 200 mM, or 300 mM glutamate (labels below photograph). After completing a freeze-thaw cycle, each sample was plated and visualized 23 hours after plating.

[1] = system: ovine pre-adipocyte cells; assay: Freeze-thaw cryoprotection of cells suspended in saline, cell yield by ImageJ (FIG. 4); assay type: cell-based
HCT 115 cells = assay: Freeze-thaw cryoprotection of HCT 115 cells, crystal violet stain density (cell yield); assay type: cell-based; details: glutamate in OptiMEM, 96 hours growth after thaw
Protocol: FIG. 3. Cryoprotectant activity of glutamate requires concentrations greater than 50 mM. The dose response relationship of glutamate and its ability to impart cryoprotective activity to OptiMeM prompted the question of our findings being extensible to other cell types such as HCT 115 cells (FIG. 2). Cells were prepared as described above in OptiMEM medium containing either no additions, 7.5% DMSO, 50 mM glutamate, 150 mM glutamate, 250 mM glutamate, or 350 mM glutamate. Thawed cells were plated, washed at 24 hours to remove debris, and allowed to grow for a total of 96 hours, at which time they were fixed with 10% formol (15 minutes). Fixed cultures were stained with 0.2% crystal violet for 2 hours, destained in 4 changes of distilled water, dried and scanned on an Epson scanner at 1200 dpi (panel A). The density of stain from each culture, corresponding to cell yield, was quantified using ImageJ (NIH). The density of each culture was plotted in a bar graph and is shown in panel B. The stained 6-well plate containing each culture is shown in panel A, with insets showing a photograph from representative cultures visualized with a 4× objective after staining. The order of the samples in the plate shown in panel A is (left to right, top to bottom): media alone, media+7.5% DMSO, media+50 mM glutamate, media+150 mM glutamate, media+250 mM glutamate, media+350 mM glutamate. […]

[2] = system: Cygnus monkey spermatozoa; details: at 5-10 mM; cited from earlier work
cells = details: NaCl at concentrations where glutamate acts as a CPA
Protocol: We developed a workflow that tested cryoprotection of cells suspended in physiological saline (150 mM NaCl), overcoming the need to resuspend centrifuged cells directly in a final cryoprotection buffer. […] Thus, in these studies, trypsinized cells were centrifuged as described above, but resuspended in saline prior to diluting into a test solution. The photographs in FIG. 4A depict representative fields at 4× magnification of 6-well plates seeded with ovine pre-adipocyte cells, frozen in solutions comprised of agents and concentrations indicated to the left of each row. The cells in each field were enumerated by using ImageJ (NIH) to carryout noise reduction and thresholding before enumerating cell particles (FIG. 4B). It should be noted that dilution of the initial saline sample contributed 0.105 M NaCl concentration in addition to the agents indicated to the left. To provide a positive sample, we also tested DMSO at three concentrations (1%, 3%, and 10%). […] Therefore, we also tested binary mixtures as well as a ternary and a quaternary mixture.
We ascertained if such synergy might also exist with other well established cryoprotectants such as betaine or trehalose. […]

RBCs = details: 1.5M proline, only in the presence of trehalose; cited from earlier work
mouse oocytes = details: 2M proline, in the presence of DMSO and ethylene glycol; cited from earlier work

## N[C@@H](CCC(=O)O)C(=O)O [glutamate]
HEK293 cells; 100 mM glutamate in OptiMEM
  post-thaw viability 23 hours after plating: some extended post-thaw viability
HEK293 cells; 200 mM and 300 mM glutamate in OptiMEM
  post-thaw viability and attachment 23 hours after plating: increased viability
HEK293 cells; 0.3M glutamate in OptiMEM
  entry into the growth cycle compared to cells in medium alone: improved entry into the growth cycle
HEK293 cells; 0.3M glutamate pH 7.2 as sole cryoprotectant
  attachment of cells at 23 hours after plating thawed cells: attachment at least to the level of either medium containing DMSO
HEK293 cells; HEK293 cells, compared among several amino acids
  post-thaw viability in initial survey of amino acids: highest degree of post-thaw viability
[1]; glutamate as a sole agent, comparable to 3% and 10% DMSO
  cryoprotection as measured by cell yield: significant cryoprotection
HCT 115 cells
  concentration required for cryoprotectant activity: greater than 50 mM

## NCC(=O)O [glycine]
[2]
  increase in post-thaw recovery above that obtained with the control: approximately 20%

## [Cl-].[Na+] [NaCl]
cells
  cryoprotection by increased ionic strength: does not provide any significant cryoprotection

## O=C(O)[C@@H]1CCCN1 [proline]
[2]
  increase in post-thaw recovery above that obtained with the control: approximately 20%
RBCs
  hemolysis of frozen cells: able to reduce hemolysis
Mouse oocytes
  increase in implantation rate: 6-10%

## C[S+](C)[O-] [DMSO, Dimethylsulfoxide]
HEK293 cells; 7.5% DMSO in OptiMEM or DMEM containing 10% serum
  attachment of cells at 23 hours after plating thawed cells: do attach
[1]; DMSO at 1%, saline, -80° C.
  cryoprotection as measured by cell yield: cryoprotective activity was apparent
[1]; DMSO at 3% and 10%, saline, -80° C.
  cryoprotection as measured by cell yield: capable cryoprotective agent

## NC(=O)CC[C@H](N)C(=O)O [glutamine]
[2]
  increase in post-thaw recovery above that obtained with the control: approximately 20%

— patent US20250031689A1, “CRYOPRESERVATION COMPOSITIONS AND METHODS” (priority 2023, published 2025)
